Source: patent US20250205191A1, “R(-)-MDMA COMPOSITIONS AND METHODS OF TREATMENT” (EmpathBio, Inc., priority 2023, published 2025)

Legend:
[1] = Phase 1 clinical study, plasma pharmacokinetics; details: for AUC0-t / Cmax / t1/2: mean (SD); for Tmax: median (minimum, maximum)
human 5-HT2A receptor = molecular target: T1, human 5-HT2A receptor (Homo sapiens, UniProt P28223); test: 5-HT2A agonism, inositol monophosphate accumulation (HTRF), CHO-K1 recombinant cells; format: cell-based
T1 construct: expressed in transfected cells; host or cells: CHO-K1

male C57BL/6J mice = test: Mouse head twitch response (HTR); format: in vivo; details: 3 mg/kg IP, 30 min, vs vehicle control group
Description: Mouse Head Twitch (HTR) is a side-to-side rotational head movement in rodents that is widely employed as a behavioral measure of 5-HT2A receptor activation (Halberstadt and Geyer 2013). […] Animals with head mounted magnets were dosed intraperitoneally and immediately tested for HTR for 30 min using an automated magnetometer detection system (Halberstadt and Geyer 2013).

healthy volunteers [2] = test: Phase 1 Emotional Breakthrough Inventory (EBI); format: in vivo, human
Excerpt: Self-reported Emotional Breakthrough Inventory (EBI) include facing emotionally difficult feelings that are usually pushed aside; experiencing resolution of a personal conflict or trauma; ability to explore challenging emotions and memories; having an emotional breakthrough; achieving a sense of closure on an emotional problem; and achieving emotional release followed by sense of relief. Emotional breakthrough is an important and distinct component of the acute psychedelic experience that appears to be a key mediator (state predictor) of subsequent longer-term psychological changes in psychiatric populations. (Carhartt-Harris, et al., Trial of Psilocybin versus Escitalopram for Depression, N Engl J Med 2021; 384:1402-1411).

healthy volunteers [3] = test: Facial Emotion Recognition Test (FERT); format: in vivo, human
[4] = molecular target: T2, human 5-HT2C (non-edited) receptor (Homo sapiens, UniProt P28335); test: 5-HT2C (non-edited) agonism, inositol monophosphate accumulation (HTRF), CHO-K1 recombinant cells; format: cell-based
T2 construct: expressed in transfected cells; host or cells: CHO-K1
T2 sequence (P28335 33-458): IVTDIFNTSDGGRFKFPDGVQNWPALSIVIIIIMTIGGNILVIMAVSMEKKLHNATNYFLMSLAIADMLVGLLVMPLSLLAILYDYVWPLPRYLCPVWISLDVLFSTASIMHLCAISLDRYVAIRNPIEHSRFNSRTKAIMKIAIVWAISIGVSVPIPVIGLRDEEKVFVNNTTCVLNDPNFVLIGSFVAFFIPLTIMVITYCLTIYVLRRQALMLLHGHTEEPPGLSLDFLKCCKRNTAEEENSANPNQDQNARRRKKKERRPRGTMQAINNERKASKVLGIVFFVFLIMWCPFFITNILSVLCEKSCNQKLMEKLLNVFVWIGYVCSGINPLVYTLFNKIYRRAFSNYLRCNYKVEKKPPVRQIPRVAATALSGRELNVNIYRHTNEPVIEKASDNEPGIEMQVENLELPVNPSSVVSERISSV

[5] = Phase 1 clinical study, urine pharmacokinetics (urinalysis); format: in vivo, human
healthy volunteers [6] = test: Phase 1 Multifaceted Empathy Test (MET); format: in vivo, human; details: 75-225 mg
Excerpt: The Multifaceted Empathy Test (MET) measures cognitive empathy (CE), explicit emotional empathy (EEE) and implicit emotional empathy (IEE).

healthy volunteers [7] = test: Phase 1 Self-Compassion Scale (SCS); format: in vivo, human
Excerpt: Self-compassion is defined as being open to and moved by one's own suffering, experiencing feelings of caring and kindness toward oneself, taking an understanding, non-judgmental attitude toward one's inadequacies and failures, and recognizing that one's own experience is part of the common human experience (Neff, K. D., 2003. The development and validation of a scale to measure self-compassion. Self and Identity, 2, 223-250). The Self-Compassion Scale is an assessment tool designed to measure three core components of self-compassion: self-kindness, common humanity and mindfulness. (SCS; Neff, K. D., 2011. Self-compassion: Stop beating yourself up and leave insecurity behind. New York, NY: Harper Collins) The total self-compassion score is the total of the scores of the sub-items: self-kindness, self-judgement (reversed), common humanity, isolation (reversed), mindfulness and over-identification (reversed).

healthy volunteers [8] = test: 11-Dimensions-Altered States of Consciousness (11D-ASC); format: in vivo, human
[9] = plasma analyte after oral 125 mg R(−)-MDMA, Day 9
[10] = plasma analyte after single oral 75 mg R(−)-MDMA, Day 1
[11] = plasma analyte after single oral 125 mg R(−)-MDMA, Day 1
[12] = plasma analyte after single oral 175 mg R(−)-MDMA, Day 1
[13] = plasma analyte after single oral 225 mg R(−)-MDMA, Day 1
[14] = urine analyte after EMP-01 125 mg, Day 9
[15] = urine analyte after single oral 75 mg R(−)-MDMA, Day 1
[16] = urine analyte after single oral 125 mg R(−)-MDMA, Day 1
[17] = urine analyte after single oral 175 mg R(−)-MDMA, Day 1
[18] = urine analyte after single oral 225 mg R(−)-MDMA, Day 1

T1 sequence (P28223 whole entry): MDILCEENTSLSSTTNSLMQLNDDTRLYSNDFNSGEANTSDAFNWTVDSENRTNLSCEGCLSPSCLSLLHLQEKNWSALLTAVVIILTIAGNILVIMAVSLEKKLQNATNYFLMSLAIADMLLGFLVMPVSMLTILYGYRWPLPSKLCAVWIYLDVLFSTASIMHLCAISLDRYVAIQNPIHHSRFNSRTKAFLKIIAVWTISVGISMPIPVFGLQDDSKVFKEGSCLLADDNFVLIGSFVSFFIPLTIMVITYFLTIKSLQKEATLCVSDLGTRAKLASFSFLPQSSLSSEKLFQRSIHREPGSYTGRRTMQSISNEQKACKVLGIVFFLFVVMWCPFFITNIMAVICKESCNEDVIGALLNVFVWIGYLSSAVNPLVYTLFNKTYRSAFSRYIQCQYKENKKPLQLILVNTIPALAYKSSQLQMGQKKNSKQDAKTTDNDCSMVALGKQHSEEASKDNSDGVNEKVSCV

## CN[C@H](C)Cc1ccc2c(c1)OCO2 [R(−)-MDMA, R(−)-3,4-methylenedioxymethamphetamine]
[1]; 125 mg fasted vs fed
  food effect: No food effect
[1]; 30 hours postdose
  mean plasma concentration at final PK assessments: remained above the lower limit of quantitation
[1]; [9]
  AUC0-t: 7229.6028 (1863.6711) h · ng/mL
  Cmax: 455.4850 (65.0461) ng/mL
  t1/2: 13.3444 (3.5309) hr
  Tmax: 2.758 (2.08, 4.02) hr
[1]; [10]
  AUC0-t: 3976.7452 (1350.4178) h · ng/mL
  Cmax: 275.8217 (90.7390) ng/mL
  t1/2: 9.2622 (2.5227) hr
  Tmax: 3.000 (2.02, 3.00) hr
[1]; [11]
  AUC0-t: 7135.8809 (1245.2963) h · ng/mL
  Cmax: 425.2550 (62.4569) ng/mL
  t1/2: 11.8615 (1.9947) hr
  Tmax: 3.517 (1.50, 4.02) hr
[1]; [12]
  AUC0-t: 10007.8882 (2324.8851) h · ng/mL
  Cmax: 617.3440 (158.9596) ng/mL
  t1/2: 12.2009 (1.4988) hr
  Tmax: 4.000 (3.00, 6.02) hr
[1]; [13]
  AUC0-t: 14453.1811 (3684.7488) h · ng/mL
  Cmax: 828.6450 (213.1377) ng/mL
  t1/2: 14.0772 (3.2340) hr
  Tmax: 5.000 (3.00, 6.02) hr
Human 5-HT2A receptor; 5-HT2A receptors
  agonism in words: moderate potency partial agonism
Human 5-HT2A receptor; 5-HT2A, CHO-K1, IP accumulation
  EC50: 3.34 µM
Human 5-HT2A receptor; 5-HT2A, relative to α-Me-5-HT at its EC100
  Efficacy (% of a-Me-5-HT response): 69.3%
Male C57BL/6J mice
  head twitch response (HTR): significantly increased
Healthy volunteers [2]; 225 mg vs placebo
  EBI, acute experience of emotional breakthroughs: significantly higher
Healthy volunteers [2]; 75-225 mg
  EBI, acute experience of emotional breakthroughs, dose response: dose-dependent increase
Healthy volunteers [3]; 75 mg
  reduction in the recognition of angry (threatening) faces: 13.2%
Healthy volunteers [3]; 125 mg
  reduction in the recognition of angry (threatening) faces: 12.3%
Healthy volunteers [3]; 175 mg
  reduction in the recognition of angry (threatening) faces: 8.8%
Healthy volunteers [3]; 225 mg
  misclassifications to happy faces, change from baseline (mean): +1.16
  reduction in the recognition of angry (threatening) faces: 12.4%
[4]; 5-HT2C (non-edited) receptors
  agonism in words: high potency full agonism
[4]; 5-HT2C (non-edited), relative to α-Me-5-HT at its EC100
  Efficacy (% of a-Me-5-HT response): 97.9%
[5]; 0-4 hours postdose
  detection in urine: detected in urine in all participants by the first collection interval
[5]; across dose groups
  mean cumulative amount excreted in urine (CAe), trend: dose-related increase
  mean renal clearance (CLr), trend: approximately similar across all dose groups
[5]; all intervals to 30 hours
  mean urine concentration over collection intervals: highest in the 12-24 hour collection interval
[5]; [14]
  Ae12-24, amount excreted at the 12-24 hour collection interval: 18.5655 (12.7511) mg
  CAe, cumulative amount of drug excreted: 40.5567 (15.5851) mg
  CFe, cumulative fraction of drug excreted: 32.4453 (12.4681) %
  CLr, renal clearance rate: 5.2324 (1.8093) L/h
  Fe12-24, fraction of drug excreted at the 12-24 hour collection interval: 14.8524 (10.2009) %
[5]; [15]
  Ae12-24, amount excreted at the 12-24 hour collection interval: 7.6917 (3.1509) mg
  CAe, cumulative amount of drug excreted: 20.0733 (9.7605) mg
  CFe, cumulative fraction of drug excreted: 26.7643 (13.0140) %
  CLr, renal clearance rate: 4.9966 (1.2255) L/h
  Fe12-24, fraction of drug excreted at the 12-24 hour collection interval: 10.2556 (4.2012) %
[5]; [16]
  Ae12-24, amount excreted at the 12-24 hour collection interval: 14.5039 (5.6733) mg
  CAe, cumulative amount of drug excreted: 28.2063 (7.8540) mg
  CFe, cumulative fraction of drug excreted: 22.5650 (6.2832) %
  CLr, renal clearance rate: 3.9900 (1.0288) L/h
  Fe12-24, fraction of drug excreted at the 12-24 hour collection interval: 11.6031 (4.5387) %
[5]; [17]
  Ae12-24, amount excreted at the 12-24 hour collection interval: 20.3702 (13.5536) mg
  CAe, cumulative amount of drug excreted: 59.6271 (34.2201) mg
  CFe, cumulative fraction of drug excreted: 34.0726 (19.5543) %
  CLr, renal clearance rate: 5.9108 (2.5782) L/h
  Fe12-24, fraction of drug excreted at the 12-24 hour collection interval: 11.6401 (7.7449) %
[5]; [18]
  Ae12-24, amount excreted at the 12-24 hour collection interval: 36.8357 (16.8611) mg
  CAe, cumulative amount of drug excreted: 76.0465 (15.1167) mg
  CFe, cumulative fraction of drug excreted: 33.7985 (6.7186) %
  CLr, renal clearance rate: 5.5411 (1.6424) L/h
  Fe12-24, fraction of drug excreted at the 12-24 hour collection interval: 16.3714 (7.4938) %
Healthy volunteers [6]
  MET LSmean scores in CE negative emotions, changes from baseline: dose-dependent manner
Healthy volunteers [7]; 225 mg group, 1 week of follow-up
  SCS self-kindness score, mean: 4.1
Healthy volunteers [7]; 225 mg group, before dosing
  SCS self-kindness score, mean at baseline: 3.9
Healthy volunteers [7]; higher doses, 1 week of follow-up
  self-compassion (self-kindness) scores: significantly increased
Healthy volunteers [8]; 225 mg dose group vs comparators of FIG. 11
  11D-ASC changed meaning of percepts: strongest
Healthy volunteers [8]; 75-225 mg oral
  11D-ASC response profile: psychedelic-like response
